What was measured:
[1] = target: Vascular endothelial growth factor receptor 1 (Homo sapiens, UniProt P17948); type: cell-based; conditions: huvec; further: in other assays of this panel Not Active means under 50% inhibition at 10 µM
Progesterone receptor = target: T1, Progesterone receptor (Bos taurus, UniProt Q690N0); test: DRUGMATRIX: Progesterone radioligand binding (ligand: [3H] R-5020); type: tissue-based, Uterus; conditions: Not Active = under 50% inhibition at 10 µM
T1 sequence (Q690N0 whole entry): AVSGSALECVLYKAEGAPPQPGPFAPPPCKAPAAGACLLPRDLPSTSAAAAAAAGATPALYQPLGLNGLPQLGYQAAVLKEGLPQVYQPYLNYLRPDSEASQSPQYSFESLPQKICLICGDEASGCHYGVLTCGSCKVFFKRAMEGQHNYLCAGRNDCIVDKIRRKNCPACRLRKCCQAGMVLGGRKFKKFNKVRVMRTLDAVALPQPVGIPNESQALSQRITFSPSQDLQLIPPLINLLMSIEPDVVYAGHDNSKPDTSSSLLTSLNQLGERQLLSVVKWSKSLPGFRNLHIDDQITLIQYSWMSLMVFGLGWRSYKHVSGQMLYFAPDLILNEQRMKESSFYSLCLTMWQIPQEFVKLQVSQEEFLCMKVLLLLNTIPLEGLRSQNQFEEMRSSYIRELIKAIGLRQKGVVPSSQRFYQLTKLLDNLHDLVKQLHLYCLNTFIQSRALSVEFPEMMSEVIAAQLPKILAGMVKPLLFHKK

[2] = target: T2, Type-2 angiotensin II receptor (Homo sapiens, UniProt P50052); type: cell-based; conditions: cho-k1; further: in other assays of this panel Not Active means under 50% inhibition at 10 µM
T2 sequence (P50052 whole entry): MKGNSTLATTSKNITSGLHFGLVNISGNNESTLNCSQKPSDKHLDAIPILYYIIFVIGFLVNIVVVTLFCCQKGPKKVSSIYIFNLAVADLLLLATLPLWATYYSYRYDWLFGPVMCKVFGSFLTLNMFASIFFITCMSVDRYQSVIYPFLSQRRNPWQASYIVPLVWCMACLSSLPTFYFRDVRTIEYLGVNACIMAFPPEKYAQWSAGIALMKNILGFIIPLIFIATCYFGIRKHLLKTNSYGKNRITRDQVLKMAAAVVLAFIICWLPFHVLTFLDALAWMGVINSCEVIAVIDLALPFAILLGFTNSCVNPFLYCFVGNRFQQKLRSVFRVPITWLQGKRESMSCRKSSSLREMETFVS

[3] = target: T3, 5-hydroxytryptamine receptor 2C (Homo sapiens, UniProt P28335); test: DRUGMATRIX: Serotonin (5-Hydroxytryptamine) 5-HT2C radioligand binding (ligand: [3H] Mesulergine); type: cell membranes, CHO-K1, Membrane; conditions: Not Active = under 50% inhibition at 10 µM
T3 sequence (P28335 whole entry): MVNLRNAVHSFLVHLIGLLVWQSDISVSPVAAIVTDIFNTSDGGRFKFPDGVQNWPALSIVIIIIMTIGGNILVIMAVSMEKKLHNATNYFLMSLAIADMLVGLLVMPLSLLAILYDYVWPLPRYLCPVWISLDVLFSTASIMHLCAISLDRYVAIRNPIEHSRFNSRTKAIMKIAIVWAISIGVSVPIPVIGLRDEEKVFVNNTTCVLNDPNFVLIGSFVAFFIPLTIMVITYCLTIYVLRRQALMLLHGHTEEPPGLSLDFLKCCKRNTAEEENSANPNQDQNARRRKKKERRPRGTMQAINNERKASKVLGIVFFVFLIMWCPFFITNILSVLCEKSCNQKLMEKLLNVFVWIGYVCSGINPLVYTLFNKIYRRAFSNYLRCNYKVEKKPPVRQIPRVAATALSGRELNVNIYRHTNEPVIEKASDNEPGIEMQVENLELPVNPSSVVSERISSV

[4] = DRUGMATRIX: GABAA, Chloride Channel, TBOB radioligand binding (ligand: [3H] TBOB); type: cell membranes, Rattus norvegicus, Wistar, Cerebral cortex, Membrane; conditions: Not Active = under 50% inhibition at 10 µM
D(3) dopamine receptor = D(3) dopamine receptor (Homo sapiens, UniProt P35462); test: DRUGMATRIX: Dopamine D3 radioligand binding (ligand: [3H] Spiperone); type: cell membranes, CHO, Membrane
D(3) dopamine receptor, sequence (P35462 whole entry): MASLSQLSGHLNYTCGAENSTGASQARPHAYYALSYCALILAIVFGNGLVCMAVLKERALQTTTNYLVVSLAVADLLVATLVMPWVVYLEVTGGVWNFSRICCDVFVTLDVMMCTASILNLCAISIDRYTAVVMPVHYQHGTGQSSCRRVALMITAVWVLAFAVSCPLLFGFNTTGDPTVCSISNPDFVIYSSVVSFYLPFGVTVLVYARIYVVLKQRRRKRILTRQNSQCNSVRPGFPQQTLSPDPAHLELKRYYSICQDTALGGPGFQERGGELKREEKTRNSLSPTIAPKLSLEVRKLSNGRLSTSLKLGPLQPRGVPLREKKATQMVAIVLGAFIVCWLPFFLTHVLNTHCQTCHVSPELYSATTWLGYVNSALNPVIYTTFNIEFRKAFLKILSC

[5] = target: Kappa-type opioid receptor (Homo sapiens, UniProt P41145); test: DRUGMATRIX: Opiate kappa (OP2, KOP) radioligand binding (ligand: [3H] Diprenorphine); type: cell membranes, HEK293, Membrane; conditions: hek293; Not Active = under 50% inhibition at 10 µM
Kappa-type opioid receptor, sequence (P41145 whole entry): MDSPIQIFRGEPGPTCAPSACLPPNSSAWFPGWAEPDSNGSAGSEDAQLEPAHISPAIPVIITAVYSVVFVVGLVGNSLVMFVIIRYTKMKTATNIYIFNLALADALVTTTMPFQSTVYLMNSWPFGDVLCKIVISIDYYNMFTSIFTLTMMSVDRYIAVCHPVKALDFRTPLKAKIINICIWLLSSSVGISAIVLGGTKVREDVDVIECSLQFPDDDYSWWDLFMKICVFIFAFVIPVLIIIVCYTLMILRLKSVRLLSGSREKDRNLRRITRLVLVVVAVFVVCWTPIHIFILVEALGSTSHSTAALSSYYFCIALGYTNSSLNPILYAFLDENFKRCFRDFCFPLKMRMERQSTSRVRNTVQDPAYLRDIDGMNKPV

Vascular endothelial growth factor receptor 1, sequence (P17948 whole entry): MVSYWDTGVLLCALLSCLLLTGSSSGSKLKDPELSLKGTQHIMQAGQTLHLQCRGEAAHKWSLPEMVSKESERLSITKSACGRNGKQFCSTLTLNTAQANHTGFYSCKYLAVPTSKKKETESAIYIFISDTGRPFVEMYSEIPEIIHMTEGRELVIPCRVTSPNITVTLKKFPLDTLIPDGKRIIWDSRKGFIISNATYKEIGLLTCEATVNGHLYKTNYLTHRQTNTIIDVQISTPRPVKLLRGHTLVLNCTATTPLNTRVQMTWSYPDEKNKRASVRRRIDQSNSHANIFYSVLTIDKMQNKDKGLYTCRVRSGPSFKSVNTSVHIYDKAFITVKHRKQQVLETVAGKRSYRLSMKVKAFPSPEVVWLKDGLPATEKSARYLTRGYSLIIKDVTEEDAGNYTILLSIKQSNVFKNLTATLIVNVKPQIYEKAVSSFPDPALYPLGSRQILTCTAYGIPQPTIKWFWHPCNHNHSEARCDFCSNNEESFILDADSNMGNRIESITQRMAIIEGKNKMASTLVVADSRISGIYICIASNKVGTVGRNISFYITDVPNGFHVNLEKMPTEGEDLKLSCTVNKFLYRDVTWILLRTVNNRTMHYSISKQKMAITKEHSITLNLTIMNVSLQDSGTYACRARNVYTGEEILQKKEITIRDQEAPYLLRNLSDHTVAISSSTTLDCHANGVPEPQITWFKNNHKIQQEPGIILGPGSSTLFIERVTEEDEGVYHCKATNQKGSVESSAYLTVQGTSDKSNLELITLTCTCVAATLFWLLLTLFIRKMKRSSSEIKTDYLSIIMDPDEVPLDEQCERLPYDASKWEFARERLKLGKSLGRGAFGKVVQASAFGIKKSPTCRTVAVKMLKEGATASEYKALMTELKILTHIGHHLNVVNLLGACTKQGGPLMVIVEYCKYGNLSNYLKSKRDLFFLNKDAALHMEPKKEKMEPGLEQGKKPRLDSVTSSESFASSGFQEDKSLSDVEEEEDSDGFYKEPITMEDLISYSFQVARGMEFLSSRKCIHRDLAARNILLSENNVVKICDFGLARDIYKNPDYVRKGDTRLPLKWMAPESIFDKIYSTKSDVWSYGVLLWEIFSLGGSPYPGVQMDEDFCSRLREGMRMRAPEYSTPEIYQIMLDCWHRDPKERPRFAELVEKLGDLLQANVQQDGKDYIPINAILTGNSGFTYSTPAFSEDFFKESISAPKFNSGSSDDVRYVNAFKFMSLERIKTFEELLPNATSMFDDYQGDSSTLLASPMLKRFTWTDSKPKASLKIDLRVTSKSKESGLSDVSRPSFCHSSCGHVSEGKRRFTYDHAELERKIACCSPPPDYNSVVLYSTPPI

Row | Compound | IC50 [1] | IC50 (Progesterone receptor) | IC50 [2] | IC50 ([3]; cho-k1) | IC50 [4] | Ki [4] | IC50 (D(3) dopamine receptor; cho) | IC50 [5] | IC50 ([3]; read-out: IC50) | Ki ([3]; read-out: Ki) | IC50 (D(3) dopamine receptor; read-out: IC50) | Ki (D(3) dopamine receptor; read-out: Ki) | Ki [1] | Ki (Progesterone receptor) | Ki [2] | Ki ([3]; cho-k1) | Ki (D(3) dopamine receptor; cho)
1 | CC(C)(C)NCC(O)c1cc(Cl)c(N)c(Cl)c1 (stereo unspecified) [CLENBUTEROL] | Not Active | Not Active | Not Active | Not Active | Not Active | Not Active | Not Active |  |  |  |  |  |  |  |  |  | 
2 | CC(O)CO (stereo unspecified) [PROPYLENE GLYCOL] | Not Active | Not Active | Not Active | Not Active | Not Active | Not Active | Not Active | Not Active |  |  |  |  |  |  |  |  | 
3 | CC1Cc2ccccc2N1NC(=O)c1ccc(Cl)c(S(N)(=O)=O)c1 (stereo unspecified) [INDAPAMIDE] | Not Active | Not Active | Not Active | Not Active | Not Active | Not Active | Not Active | Not Active |  |  |  |  |  |  |  |  | 
4 | c1ccc(Nc2ccc(Nc3ccccc3)cc2)cc1 | Not Active | Not Active | Not Active | Not Active | Not Active | Not Active | Not Active | Not Active |  |  |  |  |  |  |  |  | 
5 | COc1cc2nc(N3CCN(C(=O)C4COc5ccccc5O4)CC3)nc(N)c2cc1OC (stereo unspecified) [DOXAZOSIN] | Not Active | Not Active | Not Active |  | Not Active | Not Active | Not Active | Not Active |  |  |  |  |  |  |  |  | 
6 | CCOc1ccc(NC(C)=O)cc1 [PHENACETIN] | Not Active | Not Active | Not Active | Not Active | Not Active | Not Active | Not Active | Not Active |  |  |  |  |  |  |  |  | 
7 | CN(C)CCCN1c2ccccc2Sc2ccc(Cl)cc21 [CHLORPROMAZINE] | Not Active | Not Active | Not Active |  | Not Active | Not Active |  |  |  |  |  |  |  |  |  |  | 
8 | CC(C)[C@H]1C(=O)N2CCC[C@H]2[C@]2(O)O[C@](NC(=O)[C@@H]3C=C4c5cccc6[nH]cc(c56)C[C@H]4N(C)C3)(C(C)C)C(=O)N12 [ERGOCORNINE] | Not Active | Not Active | Not Active |  | Not Active | Not Active |  | Not Active | 104 nM | 55 nM | 2.86 nM | 0.971 nM |  |  |  |  | 
9 | CC(C)(Oc1ccc(Cl)cc1)C(=O)O [CLOFIBRIC ACID] | Not Active | Not Active | Not Active | Not Active | Not Active | Not Active | Not Active | Not Active |  |  |  |  |  |  |  |  | 
10 | CCC(C)n1ncn(-c2ccc(N3CCN(c4ccc(OCC5COC(Cn6cncn6)(c6ccc(Cl)cc6Cl)O5)cc4)CC3)cc2)c1=O (stereo unspecified) [ITRACONAZOLE] | Not Active | Not Active | Not Active | Not Active | Not Active | Not Active | Not Active | Not Active |  |  |  |  |  |  |  |  | 
11 | O=c1oc2ccccc2c(O)c1Cc1c(O)c2ccccc2oc1=O [DICUMAROL] | Not Active | Not Active | Not Active | Not Active | Not Active | Not Active | Not Active | Not Active |  |  |  |  |  |  |  |  | 
12 | Cc1onc(O)c1CC(N)C(=O)O (racemic) [(R,S)-AMPA] | Not Active | Not Active | Not Active | Not Active | Not Active | Not Active | Not Active | Not Active |  |  |  |  |  |  |  |  | 
13 | CC1=C2C(=CO[C@H](C)[C@H]2C)C(O)=C(C(=O)O)C1=O [CITRININ] | Not Active | Not Active | Not Active | Not Active | Not Active | Not Active | Not Active |  |  |  |  |  |  |  |  |  | 
14 | Nc1nc2c(ncn2COCCO)c(=O)[nH]1 [ACYCLOVIR] | Not Active | Not Active | Not Active | Not Active | Not Active | Not Active | Not Active | Not Active |  |  |  |  |  |  |  |  | 
15 | CCOC(=O)C1=C(COCCN)NC(C)=C(C(=O)OC)C1c1ccccc1Cl (stereo unspecified) [AMLODIPINE] | Not Active | Not Active | Not Active | Not Active | Not Active | Not Active | Not Active | Not Active |  |  |  |  |  |  |  |  | 
16 | O=C1CC[C@@H](N2C(=O)c3ccccc3C2=O)C(=O)N1 | Not Active | Not Active | Not Active | Not Active | Not Active | Not Active | Not Active | Not Active |  |  |  |  |  |  |  |  | 
17 | Cc1ccc(N(CC2=NCCN2)c2cccc(O)c2)cc1 [PHENTOLAMINE] | Not Active | Not Active | Not Active |  | Not Active | Not Active | Not Active | Not Active |  |  |  |  |  |  |  |  | 
18 | CC(C)C(Br)C(=O)NC(N)=O (stereo unspecified) [BROMISOVALUM] | Not Active | Not Active | Not Active | Not Active | Not Active | Not Active | Not Active | Not Active |  |  |  |  |  |  |  |  | 
19 | Cc1ccc2cc3c(ccc4ccccc43)c3c2c1CC3 [3-METHYLCHOLANTHRENE] | Not Active | Not Active | Not Active | Not Active | Not Active | Not Active | Not Active |  |  |  |  |  |  |  |  |  | 
20 | Cc1ccc(/N=C/N(C)/C=N/c2ccc(C)cc2C)c(C)c1 [AMITRAZ] | Not Active | Not Active | Not Active | Not Active | Not Active | Not Active | Not Active |  |  |  |  |  |  |  |  |  | 
21 | O=C(O)CCCc1ccc(N(CCCl)CCCl)cc1 [CHLORAMBUCIL] | Not Active | Not Active | Not Active | Not Active | Not Active | Not Active | Not Active |  |  |  |  |  |  |  |  |  | 
22 | LIPOPOLYSACCHARIDE E. COLI O55:B5 | Not Active | Not Active | Not Active | Not Active | Not Active | Not Active | Not Active |  |  |  |  |  | Not Active | Not Active | Not Active | Not Active | Not Active
23 | CADMIUM ACETATE | Not Active | Not Active | Not Active | Not Active | Not Active | Not Active | Not Active |  |  |  |  |  | Not Active | Not Active | Not Active | Not Active | Not Active
24 | CN(C)c1nc(N(C)C)nc(N(C)C)n1 [ALTRETAMINE] | Not Active |  | Not Active | Not Active | Not Active | Not Active | Not Active | Not Active |  |  |  |  |  |  |  |  | 
25 | CCCN1C[C@H](CSC)C[C@@H]2c3cccc4[nH]cc(c34)C[C@H]21 [PERGOLIDE] | Not Active | Not Active | Not Active |  | Not Active | Not Active |  | Not Active |  |  |  |  |  |  |  |  | 
26 | LEAD (II) ACETATE | Not Active | Not Active | Not Active | Not Active | Not Active | Not Active | Not Active |  |  |  |  |  | Not Active | Not Active | Not Active | Not Active | Not Active
27 | COc1ccc(C[C@H]2NC[C@H](O)[C@H]2OC(C)=O)cc1 [ANISOMYCIN] | Not Active | Not Active | Not Active | Not Active | Not Active | Not Active | Not Active |  |  |  |  |  | Not Active | Not Active | Not Active | Not Active | Not Active
